# Patent US9145376B2, “Quinazolinone inhibitors of dynein” (The Rockefeller University, priority 2011, dated 2015)
# pIC50: −log10 of the molar value.
# Tests used:
# [1] = tested on: Hh pathway (Gli-responsive firefly luciferase reporter in Shh-LIGHT2 cells); experiment: Shh-LIGHT2 assay for Hh pathway activity; type: cell-based; conditions: 10% Shh-conditioned medium, 24 hours, firefly/Renilla luciferase ratio
# Method: Shh-N-conditioned medium was prepared as described by Chen et al., Proc. Natl. Acad. Sci. U.S.A. 99, 14071 (2002). Shh-LIGHT2 cells [J. Taipale et al., Nature 406, 1005 (2000)], an NIH-3T3-based cell line containing a stably integrated Gli-responsive firefly luciferase reporter and a constitutive thymidine kinase promoter-driven Renilla luciferase expression construct (pRLTK, Promega), were cultured in DMEM containing 10% calf serum. 100 U/mL penicillin, and 0.1 mg/mL streptomycin. The cells were seeded into 96-well plates at a density of 30,000 cells/well, and the following day they were treated with individual compounds or DMSO in DMEM containing 0.5% calf serum, 10% Shh-conditioned medium, and the antibiotics described above. After being cultured for another 24 hours, the cells were lysed and their firefly and Renilla luciferase activities were determined using, a dual luciferase reporter kit (Promega) and a microplate luminometer (Veritas). Average values representing the firefly luciferase/Renilla luciferase ratio from triplicate samples were used to construct dose response profiles for each compound. Dose-response data from three separate experiments were independently curve-fitted with a variable slope, sigmoidal dose-response algorithm using Prism software, and the resulting IC50 values were used to generate an average IC50 for each compound.
# [2] = tested on: primary cilia of Shh-EGFP cells; experiment: Quantitative assessment of ciliogenesis (Arl13b staining, cilia size); type: cell-based; conditions: 24 hours, read-out: Primary cilia size (percent of DMSO control at a 30 μM dose)
# Method: Shh-EGFP cells [J. Hyman et al., Proc. Natl. Acad. Sci. U.S.A., (2009)], an NIH-3T3-based cell line containing a stably integrated Gli-responsive enhanced green fluorescent protein reporter, were maintained in DMEM containing 10% calf serum, 100 U/mL penicillin, and 0.1 mg/mL streptomycin. The cells were seeded into 24-well plates containing poly-D-lysine-coated 12-mm glass coverslips at a density of 30,000 cells/well and cultured for 36 hours. The cells were transferred into DMEM containing 0.5% calf serum, the antibiotics described above, and either individual compounds at a 30 μM concentration or 0.3% DMSO. After being cultured for another 24 hours, the cells were fixed in PBS containing 4% paraformaldehyde for 10 minutes at room temperature, washed 3×5 minutes with PBS, permeabilized with PBS containing 0.3% Triton X-100 for 5 minutes, and blocked overnight at 4° C. with PBS containing 5% normal goat serum, 0.1% Triton X-100, and 0.05% sodium azide. The coverslips were then incubated for 90 minutes at room temperature with blocking buffer containing rabbit polyclonal anti-Arl 13b antibody (1:3000 dilution), washed 4×5 minutes with PBS containing 0.1% Triton X-100, and incubated for 60 minutes with blocking buffer containing Alexa Fluor 488-conjugated goat polyclonal anti-rabbit IgG antibody (1:300 dilution; Invitrogen, A-11034). Following this secondary antibody incubation, nuclei were stained by incubating the cells 2×10 minutes with PBS containing 0.1% Triton X-100 and […] 4′,6-diamidino-2-phenylindole (DAPI) and washing them 2×5 minutes with PBS. The coverslips were subsequently mounted onto slides using Prolong Gold Antifade Reagent (Invitrogen) and imaged using an HC Plan Apochromat CS 20×/0.70 NA oil immersion objective on a Leica DMI6000B compound microscope equipped with a Photometric CoolSNAP HQ CCD camera and Metamorph software (Molecular Devices). Images of Arl13b staining in DMSO-treated cells were manually examined to establish a minimum threshold value for cilia staining intensity. ImageJ software was then used to define objects consisting of two or more adjacent pixels with a signal intensity equal to or greater than this threshold value, and the total object area within an individual image was used to estimate the total pixel area of primary cilia. Corresponding images of DAPI staining were processed in parallel using CellProfiler software to establish the number of nuclei per image. The average cilia size per cell within an individual image was then determined by dividing the total ciliary pixel area by the number of nuclei. Ten individual images, each containing approximately 150 cells. were used to quantify the average cilia size for each experimental condition.
# Shh-EGFP cells, an NIH-3T3-based cell line containing a stably integrated Gli-responsive enhanced green fluorescent protein reporter, were maintained in DMEM containing 10% (v/v) calf serum, 100 U/mL penicillin, and 0.1 mg/mL streptomycin. The cells were seeded into 24-well plates containing poly-D-lysine-coated 12-mm glass coverslips at a density of 30,000 cells/well and cultured for 36 hours. The cells were transferred into DMEM containing 0.5% (v/v) calf serum, the antibiotics described above, and either individual dihydroquinazolinones at a 30 μM concentration or an equivalent amount of DMSO vehicle (0.3%, v/v). After being cultured for another 24 hours, the cells were fixed in PBS containing 4% (w/v) paraformaldehyde for 10 min at room temperature, washed 3×5 min with PBS, permeabilized with PBS containing 0.3% (v/v) Triton X-100 for 5 min, and blocked overnight at 4° C. with PBS containing 5% (v/v) normal goat serum, 0.1% (v/v) Triton X-100, and 0.05% (w/v) sodium azide. […]
Structure (SMILES),pIC50 [1],activity at 30 µM [2] [%]
"N#C/C(C(=O)c1ccc(Cl)cc1Cl)=C1\NC(=O)c2ccccc2N1 [Example 1, 3-(2,4-dichlorophenyl)-3-oxo-2-(4-oxo-3,4-dihydroquinazolin-2(1H)-ylidene)propanenitrile]",5.00,27
"N#C/C(C(=O)c1ccc(Cl)cc1)=C1\NC(=O)c2ccccc2N1 [Example 2, 3-(4-chlorophenyl)-3-oxo-2-(4-oxo-3,4-dihydroquinazolin-2(1H)-ylidene)propanenitrile]",5.28,74
"N#C/C(C(=O)c1ccccc1)=C1\NC(=O)c2ccccc2N1 [Example 16, 3-oxo-2-(4-oxo-3,4-dihydroquinazolin-2(1H)-ylidene)-3-phenylpropanenitrile]",4.64,95
"N#C/C(C(=O)c1ccc(Cl)cc1Cl)=C1\NC(=O)c2ccc(Cl)cc2N1 [Example 31, 2-(7-chloro-4-oxo-3,4-dihydroquinazolin-2(1H)-ylidene)-3-(2,4-dichlorophenyl)-3-oxo-propanenitrile]",4.82,7
